Measurements published in patent US10308639B2, “Phosphatidylinositol 3-kinase inhibitors” (Gilead Sciences, Inc., priority 2014, dated 2019).
Where two headings read alike, the source gives them in different places.

What was measured:
Type in all cases: biochemical
[1] = molecular target: T1, PI3Kδ (Homo sapiens, UniProt O00329); test: TR-FRET enzymatic activity assay, PI3Kδ
T1 construct: made in house

[2] = molecular target: T2, PI3Kγ (Homo sapiens, UniProt P48736); test: TR-FRET enzymatic activity assay, PI3Kγ; details: read-out: PI3Kγ IC50
T2 construct: made in house
T2 sequence (P48736 whole entry): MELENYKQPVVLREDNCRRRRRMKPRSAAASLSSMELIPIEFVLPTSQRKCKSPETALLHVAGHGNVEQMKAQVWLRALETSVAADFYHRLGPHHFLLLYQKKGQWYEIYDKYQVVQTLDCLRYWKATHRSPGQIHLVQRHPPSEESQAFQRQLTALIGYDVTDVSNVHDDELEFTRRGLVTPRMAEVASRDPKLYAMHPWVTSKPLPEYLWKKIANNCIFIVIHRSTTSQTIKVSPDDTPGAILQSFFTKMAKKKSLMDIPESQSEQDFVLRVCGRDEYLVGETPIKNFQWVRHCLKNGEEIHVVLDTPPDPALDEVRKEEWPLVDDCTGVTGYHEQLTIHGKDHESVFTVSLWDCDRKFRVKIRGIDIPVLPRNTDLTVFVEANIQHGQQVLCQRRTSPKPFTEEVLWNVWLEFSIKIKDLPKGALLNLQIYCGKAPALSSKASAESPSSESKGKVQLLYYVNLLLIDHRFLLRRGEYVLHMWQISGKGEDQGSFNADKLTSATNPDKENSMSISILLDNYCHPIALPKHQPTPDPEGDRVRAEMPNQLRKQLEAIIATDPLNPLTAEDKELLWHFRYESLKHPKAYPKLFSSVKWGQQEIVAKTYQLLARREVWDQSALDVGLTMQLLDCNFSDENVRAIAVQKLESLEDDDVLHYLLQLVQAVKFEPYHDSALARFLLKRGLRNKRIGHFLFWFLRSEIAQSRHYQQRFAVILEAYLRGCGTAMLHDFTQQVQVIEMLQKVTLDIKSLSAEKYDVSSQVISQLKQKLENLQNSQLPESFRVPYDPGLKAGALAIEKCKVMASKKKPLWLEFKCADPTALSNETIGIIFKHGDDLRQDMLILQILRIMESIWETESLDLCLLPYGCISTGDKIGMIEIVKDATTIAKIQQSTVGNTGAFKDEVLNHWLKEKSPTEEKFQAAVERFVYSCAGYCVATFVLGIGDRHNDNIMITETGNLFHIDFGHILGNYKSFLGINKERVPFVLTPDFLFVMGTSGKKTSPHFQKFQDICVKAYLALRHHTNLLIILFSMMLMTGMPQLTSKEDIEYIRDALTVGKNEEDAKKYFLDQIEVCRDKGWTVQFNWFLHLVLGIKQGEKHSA
In short: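 Enzymatic activity against the PI3K isoforms was measured using a time-resolved fluorescence resonance energy transfer (TR-FRET) assay.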

[3] = molecular target: T3, PI3Kβ (Homo sapiens, UniProt P42338); test: TR-FRET enzymatic activity assay, PI3Kβ
T3 construct: made in house
T3 sequence (P42338 whole entry): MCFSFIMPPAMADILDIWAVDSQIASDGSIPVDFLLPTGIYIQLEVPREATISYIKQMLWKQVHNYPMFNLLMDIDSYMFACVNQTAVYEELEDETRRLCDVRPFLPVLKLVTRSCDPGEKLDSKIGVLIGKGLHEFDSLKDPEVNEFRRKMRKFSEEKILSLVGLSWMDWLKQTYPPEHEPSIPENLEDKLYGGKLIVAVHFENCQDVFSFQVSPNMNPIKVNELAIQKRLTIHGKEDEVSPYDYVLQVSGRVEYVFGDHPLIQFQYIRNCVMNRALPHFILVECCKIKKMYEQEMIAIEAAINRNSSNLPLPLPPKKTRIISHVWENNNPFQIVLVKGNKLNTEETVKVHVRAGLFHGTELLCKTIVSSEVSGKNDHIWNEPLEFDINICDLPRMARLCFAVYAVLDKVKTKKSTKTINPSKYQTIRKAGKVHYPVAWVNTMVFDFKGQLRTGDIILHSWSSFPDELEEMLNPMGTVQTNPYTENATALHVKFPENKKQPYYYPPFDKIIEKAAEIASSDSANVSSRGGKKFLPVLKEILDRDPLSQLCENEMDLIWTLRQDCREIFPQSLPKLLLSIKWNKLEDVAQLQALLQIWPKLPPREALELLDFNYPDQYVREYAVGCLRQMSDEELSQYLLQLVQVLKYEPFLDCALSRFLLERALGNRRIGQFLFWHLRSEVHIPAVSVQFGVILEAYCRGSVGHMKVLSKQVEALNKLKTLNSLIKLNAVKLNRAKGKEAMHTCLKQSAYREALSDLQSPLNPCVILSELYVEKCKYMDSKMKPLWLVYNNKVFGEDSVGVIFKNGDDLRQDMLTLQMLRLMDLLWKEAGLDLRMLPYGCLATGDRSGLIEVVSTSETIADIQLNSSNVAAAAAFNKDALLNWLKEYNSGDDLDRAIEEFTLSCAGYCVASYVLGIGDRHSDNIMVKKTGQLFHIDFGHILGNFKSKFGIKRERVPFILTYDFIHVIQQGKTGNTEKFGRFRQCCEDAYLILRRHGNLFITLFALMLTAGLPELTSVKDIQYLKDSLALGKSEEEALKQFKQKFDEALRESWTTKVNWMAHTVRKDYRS
T3 sequence (P27986 whole entry partner): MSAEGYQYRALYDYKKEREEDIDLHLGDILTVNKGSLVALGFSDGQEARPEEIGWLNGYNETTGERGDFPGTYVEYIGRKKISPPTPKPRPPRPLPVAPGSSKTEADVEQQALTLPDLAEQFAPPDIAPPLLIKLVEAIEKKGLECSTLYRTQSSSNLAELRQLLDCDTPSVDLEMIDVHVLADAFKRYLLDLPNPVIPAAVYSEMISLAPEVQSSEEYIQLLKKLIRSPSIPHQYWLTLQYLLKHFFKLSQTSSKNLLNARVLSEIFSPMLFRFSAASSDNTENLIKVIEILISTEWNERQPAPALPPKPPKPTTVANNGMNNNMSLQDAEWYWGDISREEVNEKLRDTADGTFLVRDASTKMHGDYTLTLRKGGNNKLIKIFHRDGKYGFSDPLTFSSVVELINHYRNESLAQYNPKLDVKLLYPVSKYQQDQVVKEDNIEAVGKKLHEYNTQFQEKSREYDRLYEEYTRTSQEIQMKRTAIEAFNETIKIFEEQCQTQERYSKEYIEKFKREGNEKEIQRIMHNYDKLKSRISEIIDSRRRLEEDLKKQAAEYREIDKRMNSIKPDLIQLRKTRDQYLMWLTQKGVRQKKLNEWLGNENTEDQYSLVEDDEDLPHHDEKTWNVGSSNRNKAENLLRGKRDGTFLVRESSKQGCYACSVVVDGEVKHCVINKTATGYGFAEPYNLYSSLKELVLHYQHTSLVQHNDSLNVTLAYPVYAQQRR

[4] = Table 2, TR-FRET, 2x Km ATP, 30 minutes at 25° C.

T1 sequence (O00329 whole entry): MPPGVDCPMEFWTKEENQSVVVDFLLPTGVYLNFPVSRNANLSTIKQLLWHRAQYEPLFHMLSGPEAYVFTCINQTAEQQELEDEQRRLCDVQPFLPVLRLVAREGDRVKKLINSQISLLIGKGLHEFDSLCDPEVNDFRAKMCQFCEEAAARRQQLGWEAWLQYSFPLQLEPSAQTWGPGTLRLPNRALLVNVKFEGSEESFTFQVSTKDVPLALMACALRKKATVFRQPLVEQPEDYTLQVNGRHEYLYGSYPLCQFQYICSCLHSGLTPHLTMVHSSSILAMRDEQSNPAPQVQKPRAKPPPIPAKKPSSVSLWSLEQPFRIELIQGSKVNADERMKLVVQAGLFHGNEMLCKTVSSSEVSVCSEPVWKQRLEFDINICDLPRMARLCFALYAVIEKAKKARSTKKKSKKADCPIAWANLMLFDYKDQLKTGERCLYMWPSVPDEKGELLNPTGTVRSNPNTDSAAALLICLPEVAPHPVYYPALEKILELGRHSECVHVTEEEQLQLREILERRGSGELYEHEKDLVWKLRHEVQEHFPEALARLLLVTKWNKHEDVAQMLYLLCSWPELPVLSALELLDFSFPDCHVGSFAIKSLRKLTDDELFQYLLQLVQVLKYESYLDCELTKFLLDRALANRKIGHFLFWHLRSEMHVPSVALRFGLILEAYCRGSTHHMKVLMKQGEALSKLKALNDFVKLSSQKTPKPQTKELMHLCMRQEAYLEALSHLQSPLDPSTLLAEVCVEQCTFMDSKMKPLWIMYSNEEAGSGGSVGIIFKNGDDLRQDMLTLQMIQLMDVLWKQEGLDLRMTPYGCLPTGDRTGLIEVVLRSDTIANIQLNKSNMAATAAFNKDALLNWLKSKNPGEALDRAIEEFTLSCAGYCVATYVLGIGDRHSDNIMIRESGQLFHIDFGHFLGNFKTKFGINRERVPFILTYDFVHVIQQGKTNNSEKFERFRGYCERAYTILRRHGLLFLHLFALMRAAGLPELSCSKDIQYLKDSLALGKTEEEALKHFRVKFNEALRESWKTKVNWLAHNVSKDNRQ
T1 sequence (P27986 whole entry partner): as the sequence (P27986 whole entry partner) above

CC[C@H](Nc1nc(N)nc(C)c1C#N)c1nc2c(C#N)cccc2c(=O)n1-c1cc[nH]n1 [Compound 76, (S)-2-(1-((2-amino-5-cyano-6-methylpyrimidin-4-yl)amino)propyl)-4-oxo-3-(1H-pyrazol-3-yl)-3,4-dihydroquinazoline-8-carbonitrile]
IC50 [1, 4]: 2 nM | IC50 [2, 4]: 6300 nM | IC50 [3, 4]: 0.6 nM

N#Cc1c(N[C@H](c2nc3c(C(F)F)cc(F)cc3c(=O)n2-c2cc[nH]n2)C2CC2)nc(N)nc1C(F)F [Compound 145, (S)-2-amino-4-((cyclopropyl(8-(difluoromethyl)-6-fluoro-4-oxo-3-(1H-pyrazol-3-yl)-3,4-dihydroquinazolin-2-yl)methyl)amino)-6-(difluoromethyl)pyrimidine-5-carbonitrile]
IC50 ([1]; Table 2a, same assay): 46 nM | IC50 ([2]; Table 2a, same assay): > 10000 nM | IC50 ([3]; Table 2a, same assay): 28 nM

O=c1c2c(Cl)cccc2nc([C@@H](Nc2ncnc3scnc23)C2CC2)n1-c1cn[nH]c1 [Compound 25, (S)-5-chloro-2-(cyclopropyl(thiazolo[5,4-d]pyrimidin-7-ylamino)methyl)-3-(1H-pyrazol-4-yl)quinazolin-4(3H)-one]
IC50 [1, 4]: 1 nM | IC50 [2, 4]: 130 nM | IC50 [3, 4]: 5 nM

C[C@H](NC(=O)c1nc(Cl)c(N)nc1N)c1nc2cccc(Cl)c2c(=O)n1-c1cc[nH]n1 [Compound 276, (S)-3,5-diamino-6-chloro-N-(1-(5-chloro-4-oxo-3-(1H-pyrazol-3-yl)-3,4-dihydroquinazolin-2-yl)ethyl)pyrazine-2-carboxamide]
IC50 ([1]; Table 2a, same assay): 36 nM | IC50 ([2]; Table 2a, same assay): 280 nM | IC50 ([3]; Table 2a, same assay): 20 nM

C[C@H](Nc1nc(N)nc(C(F)F)c1Cl)c1nc2c(Cl)cc(F)cc2c(=O)n1-c1cc[nH]n1 [Compound 226, (S)-2-(1-((2-amino-5-chloro-6-(difluoromethyl)pyrimidin-4-yl)amino)ethyl)-8-chloro-6-fluoro-3-(1H-pyrazol-3-yl)quinazolin-4(3H)-one]
IC50 ([1]; Table 2a, same assay): 270 nM | IC50 ([2]; Table 2a, same assay): > 10000 nM | IC50 ([3]; Table 2a, same assay): 628 nM

CC[C@H](Nc1nc(N)nc(N)c1Cl)c1nc2ccc(F)cc2c(=O)n1-c1cc[nH]n1 [Compound 116, (S)-2-(1-((2,6-diamino-5-chloropyrimidin-4-yl)amino)propyl)-6-fluoro-3-(1H-pyrazol-3-yl)quinazolin-4(3h)-one]
IC50 [1, 4]: 44 nM | IC50 [2]: > 10000 nM | IC50 [3, 4]: 210 nM

Cc1n[nH]cc1-n1c([C@H](C)Nc2nc(N)nc(N)c2Cl)nc2c(Cl)ccc(Cl)c2c1=O [Compound 218, (S)-5,8-dichloro-2-(1-((2,6-diamino-5-chloropyrimidin-4-yl)amino)ethyl)-3-(3-methyl-1H-pyrazol-4-yl)quinazolin-4(3H)-one]
IC50 ([1]; Table 2a, same assay): 20 nM | IC50 ([2]; Table 2a, same assay): > 10000 nM | IC50 ([3]; Table 2a, same assay): 210 nM

C[C@H](Nc1nc(N)nc(N)c1Cl)c1nc2cccc(C(F)F)c2c(=O)n1-c1cc[nH]n1 [Compound 126, (S)-2-(1-((2,6-diamino-5-chloropyrimidin-4-yl)amino)ethyl)-5-(difluoromethyl)-3-(1H-pyrazol-3-yl)quinazolin-4(3H)-one]
IC50 [1, 4]: 3 nM | IC50 [2, 4]: 2800 nM | IC50 [3, 4]: 5 nM

CC[C@H](Nc1ncnc2scnc12)c1nc2cccc(Br)c2c(=O)n1-c1cn[nH]c1 [Compound 100, (S)-5-bromo-3-(1H-pyrazol-4-yl)-2-(1-(thiazolo[5,4-d]pyrimidin-7-ylamino)propyl)quinazolin-4(3H)-one]
IC50 [1, 4]: 4 nM | IC50 [2, 4]: 280 nM | IC50 [3, 4]: 22 nM

C[C@H](Nc1ncnc2scnc12)c1nc2cccc(Cl)c2c(=O)n1-c1n[nH]cc1Br [Compound 104, (S)-3-(4-bromo-1H-pyrazol-3-yl)-5-chloro-2-(1-(thiazolo[5,4-d]pyrimidin-7-ylamino)ethyl)quinazolin-4(3H)-one]
IC50 [1, 4]: 2 nM | IC50 [2, 4]: 500 nM | IC50 [3, 4]: 61 nM

C[C@H](Nc1nc(N)nc(N)c1Cl)c1nc2cccc(C(F)(F)F)c2c(=O)n1-c1cn[nH]c1 [Compound 209, (S)-2-(1-((2,6-diamino-5-chloropyrimidin-4-yl)amino)ethyl)-3-(1H-pyrazol-4-yl)-5-(trifluoromethyl)quinazolin-4(3H)-one]
IC50 ([1]; Table 2a, same assay): 16 nM | IC50 ([2]; Table 2a, same assay): 1800 nM | IC50 ([3]; Table 2a, same assay): 83 nM

C[C@H](Nc1nc(C(F)F)nc(N)c1C#N)c1nc2c(Cl)cc(F)cc2c(=O)n1-c1cc[nH]n1 [Compound 198, (S)-4-amino-6-((1-(8-chloro-6-fluoro-4-oxo-3-(1H-pyrazol-3-yl)-3,4-dihydroquinazolin-2-yl)ethyl)amino)-2-(difluoromethyl)pyrimidine-5-carbonitrile]
IC50 ([1]; Table 2a, same assay): 830 nM | IC50 ([2]; Table 2a, same assay): > 10000 nM | IC50 ([3]; Table 2a, same assay): 580 nM

C[C@H](Nc1nc(N)nc(C(F)F)c1C#N)c1nc2cccc(Cl)c2c(=O)n1-c1cc[nH]n1 [Compound 166, (S)-2-amino-4-((1-(5-chloro-4-oxo-3-(1H-pyrazol-3-yl)-3,4-dihydroquinazolin-2-yl)ethyl)amino)-6-(difluoromethyl)pyrimidine-5-carbonitrile]
IC50 ([1]; Table 2a, same assay): 8 nM | IC50 ([2]; Table 2a, same assay): 680 nM | IC50 ([3]; Table 2a, same assay): 16 nM

CC[C@H](NC(=O)c1nccnc1N)c1nc2c(Cl)ccc(Cl)c2c(=O)n1-c1cc[nH]n1 [Compound 118, (S)-3-amino-N-(1-(5,8-dichloro-4-oxo-3-(1H-pyrazol-3-yl)-3,4-dihydroquinazolin-2-yl)propyl)pyrazine-2-carboxamide]
IC50 [1, 4]: 260 nM | IC50 [2]: > 10000 nM | IC50 [3, 4]: 510 nM

CC[C@H](Nc1nc(N)nc(N)c1C#N)c1nc2ccc(F)cc2c(=O)n1-c1cc[nH]n1 [Compound 112, (S)-2,4-diamino-6-((1-(6-fluoro-4-oxo-3-(1H-pyrazol-3-yl)-3,4-dihydroquinazolin-2-yl)propyl)amino)pyrimidine-5-carbonitrile]
IC50 [1, 4]: 4 nM | IC50 [2, 4]: 2200 nM | IC50 [3, 4]: 17 nM

N#Cc1c(N[C@H](c2nc3c(Cl)cccc3c(=O)n2-c2cc[nH]n2)C2CC2)nc(N)nc1C(F)F [Compound 196, (S)-2-amino-4-(((8-chloro-4-oxo-3-(1H-pyrazol-3-yl)-3,4-dihydroquinazolin-2-yl)(cyclopropyl)methyl)amino)-6-(difluoromethyl)pyrimidine-5-carbonitrile]
IC50 ([1]; Table 2a, same assay): 19 nM | IC50 ([2]; Table 2a, same assay): 6900 nM | IC50 ([3]; Table 2a, same assay): 19 nM

Nc1nc(N)c(Cl)c(N[C@H](c2nc3c(F)cc(F)cc3c(=O)n2-c2cc[nH]n2)C2CC2)n1 [Compound 162, (S)-2-(cyclopropyl((2,6-diamino-5-chloropyrimidin-4-yl)amino)methyl)-6,8-difluoro-3-(1H-pyrazol-3-yl)quinazolin-4(3H)-one]
IC50 ([1]; Table 2a, same assay): 5 nM | IC50 ([2]; Table 2a, same assay): 6100 nM | IC50 ([3]; Table 2a, same assay): 37 nM

N#Cc1c(N)nc(N)nc1N[C@H](c1nc2c(Cl)ccc(Cl)c2c(=O)n1-c1cn[nH]c1)C1CC1 [Compound 31, (S)-2,4-diamino-6-((cyclopropyl(5,8-dichloro-4-oxo-3-(1H-pyrazol-4-yl)-3,4-dihydroquinazolin-2-yl)methyl)amino)pyrimidine-5-carbonitrile]
IC50 [1, 4]: 1 nM | IC50 [2, 4]: 160 nM | IC50 [3, 4]: 1 nM

Cc1c[nH]nc1-n1c([C@@H](Nc2nc(N)nc(C)c2C#N)C2CC2)nc2cccc(Cl)c2c1=O [Compound 244, (S)-2-amino-4-(((5-chloro-3-(4-methyl-1H-pyrazol-3-yl)-4-oxo-3,4-dihydroquinazolin-2-yl)(cyclopropyl)methyl)amino)-6-methylpyrimidine-5-carbonitrile]
IC50 ([1]; Table 2a, same assay): 8 nM | IC50 ([2]; Table 2a, same assay): 960 nM | IC50 ([3]; Table 2a, same assay): 31 nM

C[C@H](Nc1nc(N)nc(C(F)F)c1Cl)c1nc2cccc(Cl)c2c(=O)n1-c1cc[nH]n1 [Compound 225, (S)-2-(1-((2-amino-5-chloro-6-(difluoromethyl)pyrimidin-4-yl)amino)ethyl)-5-chloro-3-(1H-pyrazol-3-yl)quinazolin-4(3H)-one]
IC50 ([1]; Table 2a, same assay): 300 nM | IC50 ([2]; Table 2a, same assay): > 10000 nM | IC50 ([3]; Table 2a, same assay): 537 nM

Cc1n[nH]cc1-n1c([C@H](C)Nc2nc(N)nc(N)c2C#N)nc2c(Cl)ccc(Cl)c2c1=O [Compound 219, (S)-2,4-diamino-6-((1-(5,8-dichloro-3-(3-methyl-1H-pyrazol-4-yl)-4-oxo-3,4-dihydroquinazolin-2-yl)ethyl)amino)pyrimidine-5-carbonitrile]
IC50 ([1]; Table 2a, same assay): 1 nM | IC50 ([2]; Table 2a, same assay): 420 nM | IC50 ([3]; Table 2a, same assay): 6 nM

N#Cc1c(N)nc(N)nc1N[C@H](c1nc2c(F)cc(F)cc2c(=O)n1-c1cc[nH]n1)C1CC1 [Compound 170, (S)-2,4-diamino-6-((cyclopropyl(6,8-difluoro-4-oxo-3-(1H-pyrazol-3-yl)-3,4-dihydroquinazolin-2-yl)methyl)amino)pyrimidine-5-carbonitrile]
IC50 ([1]; Table 2a, same assay): 1 nM | IC50 ([2]; Table 2a, same assay): 436 nM | IC50 ([3]; Table 2a, same assay): 3 nM

C[C@H](Nc1nc(N)nc(N)c1C#N)c1nc2cc(F)cc(F)c2c(=O)n1-c1cc[nH]n1 [Compound 235, (S)-2,4-diamino-6-((1-(5,7-difluoro-4-oxo-3-(1H-pyrazol-3-yl)-3,4-dihydroquinazolin-2-yl)ethyl)amino)pyrimidine-5-carbonitrile]
IC50 ([1]; Table 2a, same assay): 12 nM | IC50 ([2]; Table 2a, same assay): 9600 nM | IC50 ([3]; Table 2a, same assay): 11 nM

C[C@H](Nc1nc(N)nc(C(F)F)c1C#N)c1nc2c(F)ccc(F)c2c(=O)n1-c1cc[nH]n1 [Compound 192, (S)-2-amino-4-((1-(5,8-difluoro-4-oxo-3-(1H-pyrazol-3-yl)-3,4-dihydroquinazolin-2-yl)ethyl)amino)-6-(difluoromethyl)pyrimidine-5-carbonitrile]
IC50 ([1]; Table 2a, same assay): 21 nM | IC50 ([2]; Table 2a, same assay): 4700 nM | IC50 ([3]; Table 2a, same assay): 62 nM

CC[C@H](Nc1nc(N)nc(N)c1Cl)c1nc2c(Cl)ccc(Cl)c2c(=O)n1-c1cc[nH]n1 [Compound 66, (S)-5,8-dichloro-2-(1-((2,6-diamino-5-chloropyrimidin-4-yl)amino)propyl)-3-(1H-pyrazol-3-yl)quinazolin-4(3H)-one]
IC50 [1, 4]: 36 nM | IC50 [2]: > 10000 nM | IC50 [3, 4]: 150 nM
